Results taken from US20220386611A1, “NOVEL HETEROARYL-TRIAZOLE COMPOUNDS AS PESTICIDES” (Bayer Aktiengesellschaft, priority 2019, published 2022).

How the values were obtained:
Type in all cases: in vivo
[1] = system: adult cat fleas (Ctenocephalides felis); assay: Ctenocephalides felis in-vitro contact test, adult cat flea; conditions: after 48 hours, read-out: efficacy (fleas dead or moribund); for pest or weed control at 5 µg/cm2, 500 g/ha: 5 μg/cm^2 (=500 g/ha)
Experimental: (§1) Ctenocephalides felis—In-Vitro Contact Tests Adult Cat Flea 9 mg compound is solved in 1 mL acetone and diluted with acetone to the desired concentration. 250 μL of the test solution is filled in 25 mL glass test tubes and homogeneously distributed on the inner walls by rotation and tilting on a shaking device (2 h at 30 rpm). With a compound concentration of 900 ppm, an inner surface of 44.7 cm^2 and a homogeneous distribution, a dose of 5 μg/cm^2 is achieved.
After the solvent has evaporated, each test tube is filled with 5-10 adult cat fleas (Ctenocephalidesfelis), closed with a perforated lid and incubated in a lying position at room temperature and relative humidity.
(§2) After 48 hours efficacy is determined. The fleas are patted on the ground of the tubes and are incubated on a heating plate at 45-50° C. for at most 5 minutes. Immotile or uncoordinated moving fleas, which are not able to escape the heat by climbing upwards, are marked as dead or moribund.
An efficacy of 100% means all fleas are dead or moribund; 0% means no fleas are dead or moribund.

[2] = system: larvae of the banded cucumber beetle (Diabrotica balteata); assay: Diabrotica balteata spray test; conditions: 168 h, 100 g/ha (=32 μg/well), after 7 days, wheat seeds, read-out: efficacy (seedlings grown like untreated, uninfected control)
Experimental: Diabrotica balteata—spray test
Solvent: 78.0 parts by weight of acetone
1.5 parts by weight of dimethylformamide
(§3) Emulsifier: alkylarylpolyglycol ether
(§4) To produce a suitable preparation of active compound, 1 part by weight of active compound is mixed with the stated amount of solvent, and the concentrate is diluted with water, containing an emulsifier concentration of 1000 ppm, to the desired concentration. Further test concentrations are prepared by dilution with emulsifier containing water.
Soaked wheat seeds (Triticum aestivum) are placed in a multiple well plate filled with agar and some water and are incubated for 1 day to germinate (5 seeds per well). The germinated wheat seeds are sprayed with a test solution containing the desired concentration of the active ingredient. Afterwards each unit is infected with 10-20 larvae of the banded cucumber beetle (Diabrotica balteata).
After 7 days efficacy in % is determined. 100% means all the seedlings have grown up like in the untreated, uninfected control; 0% means none of the seedlings have grown.

[3] = system: green peach aphid (Myzus persicae); assay: Myzus persicae spray test; conditions: foliar, 120 h, after 5 days, Chinese cabbage leaf disks
Experimental: Myzus persicae—spray test
(§5) Solvent: 78.0 parts by weight acetone • 1.5 parts by weight dimethylformamide
as §3
as §4, with “solvents” for “solvent,”, “and” for “and the concentrate”
Chinese cabbage (Brassica pekinensis) leaf disks infected with all instars of the green peach aphid (Myzus persicae), are sprayed with a preparation of the active ingredient of the desired concentration.
(§6) After 5 days mortality in % is determined. 100% means all aphids have been killed and 0% means none of the aphids have been killed.

[4] = system: fall armyworm larvae (Spodoptera frugiperda); assay: Spodoptera frugiperda spray test; conditions: in Zea mays, 168 h
Experimental: Spodoptera frukiperda—Spray Test
as §5, §3
as §4, with “solvents” for “solvent,”, “and” for “and the concentrate”
Maize (Zea mays) leaf sections are sprayed with a preparation of the active ingredient of the desired concentration. Once dry, the leaf sections are infested with fall armyworm larvae (Spodoptera frugiperda).
After 7 days mortality in % is determined. 100% means all caterpillars have been killed and 0% means none of the caterpillars have been killed.

[5] = system: green peach aphid (Myzus persicae); assay: Myzus persicae oral test; conditions: 120 h
Experimental: Solvent: 100 parts by weight acetone
To produce a suitable preparation of active compound, 1 part by weight of active compound is mixed with the stated amount of solvent, and the concentrate is diluted with water to the desired concentration. 50 μL compound solution is filled in microtiter plates and 150 μL IPL41 insect medium (33%+15% sugar) is added to obtain a total volume of 200 μL per well. Afterwards the plates are sealed with parafilm through which a mixed population of the green peach aphid (Myzus persicae) can suck on the compound preparation.
as §6

[6] = system: adult unfed cat fleas (Ctenocephalides felis); assay: Ctenocephalides felis oral test; conditions: 48 h
Experimental: Ctenocephalides felis—Oral Test
(§7) Solvent: dimethyl sulfoxide
To produce a suitable preparation of active compound, 10 mg of active compound are dissolved in 0.5 ml solvent, and the concentrate is diluted with cattle blood to the desired concentration.
Approximately 20 adult unfed cat fleas (Ctenocephalides felis) are placed in flea chambers. The blood chamber, sealed with parafilm on the bottom, are filled with cattle blood supplied with compound solution and placed on the gauze covered top of the flea chamber, so that the fleas are able to suck the blood. The blood chamber is heated to 37° C. whereas the flea chamber is kept at room temperature.
After 2 days mortality in % is determined. 100% means all the fleas have been killed; 0% means none of the fleas have been killed.

[7] = system: adult engorged female ticks (Rhipicephalus microplus); assay: Rhipicephalus (Boophilus) microplus injection test; conditions: 168 h, after 7 days, read-out: efficacy (infertile eggs); for pest or weed control at 0.004 mg: 4 μg/animal; for pest or weed control at 0.02 mg: 20 μg/animal
Experimental: Rhipicephalus (Boophilus) microplus—Injection Test
as §7
To produce a suitable preparation of active compound, 10 mg of active compound are dissolved in 0.5 mL solvent, and the concentrate is diluted with solvent to the desired concentration.
Five adult engorged female ticks (Rhipicephalus microplus) are injected with 1 μL compound solution into the abdomen. The ticks are transferred into replica plates and incubated in a climate chamber.
After 7 days egg deposition of fertile eggs is monitored. Eggs where fertility is not visible are stored in a climate chamber till hatching after about 42 days. An efficacy of 100% means all eggs are infertile; 0% means all eggs are fertile.

[8] = system: Rhipicephalus microplus larvae (strain Parkhurst, resistant against synthetic pyrethroids); assay: Rhipicephalus (Boophilus) microplus in-vitro contact test, larval cattle tick; conditions: 5 μg/cm^2 (=500 g/ha), after 48 hours, read-out: efficacy (larvae dead or moribund)
Experimental: Rhipicephalus (Boophilus) Microplus—In-Vitro Contact Tests Larval Cattle Tick (Strain Parkhurst, Resistant Against Synthetic Pyrethroids)
as §1, with “9” for “Ctenocephalides felis—In-Vitro Contact Tests Adult Cat Flea 9”
After the solvent has evaporated, each test tube is filled with 20-50 cattle tick larvae (Rhipicephalus microplus), closed with a perforated lid and incubated in a horizontal position at 85% relative humidity and 27° C. in an incubator. After 48 hours efficacy is determined. The larvae are patted on the ground of the tubes and negative geotactic behaviour is recorded.
An efficacy of 100% means all larvae are dead or moribund; 0% means no larvae are dead or moribund.

[9] = system: adult brown dog ticks (Rhipicephalus sanguineus); assay: Rhipicephalus sanguineus in-vitro contact test with adult brown dog ticks; conditions: 5 μg/cm^2 (=500 g/ha), after 48 hours, read-out: efficacy (ticks dead or moribund)
Experimental: Rhipicephalus sanguineus—In-Vitro Contact Tests with Adult Brown Dog Ticks
as §1, with “9” for “Ctenocephalides felis—In-Vitro Contact Tests Adult Cat Flea 9”
as §2, with “After the solvent has evaporated, each test tube is filled with 5-10 adult brown dog ticks (Rhipicephalus sanguineus), closed with a perforated lid and incubated in a lying position at room temperature and relative humidity. After” for “After”, “ticks” for “fleas”, “ticks,” for “fleas,”
An efficacy of 100% means all ticks are dead or moribund; 0% means no ticks are dead or moribund.

[10] = system: Musca domestica strain WHO-N; assay: Musca domestica test (MUSCDO surface treatment & contact assay); conditions: surface concentration 20 mg/m^2, 30 minutes exposure, 24 hours after contact, read-out: efficacy (mortality)
Experimental: Musca domestica Test (MUSCDO Surface Treatment & Contact Assay)
(§8) Solvent: Aceton+2000 ppm rapeseed oil methyl ester (RME)
(§9) In order to produce a sufficient, active ingredient containing solution it is necessary to solve the test compound in the solvent-mix (acetone at 2 mg/ml/RME 2000 ppm). This solution is pipetted onto a glazed tile and after evaporation of the acetone, adult flies of the species Musca domestica strain WHO-N are placed onto the dried surface. The exposure time is 30 minutes. Mortality in percent (%) is determined 24 hours after contact of the insects to the treated surface. 100% mortality means that all tested insects are dead, whereas 0% means that no insect died.

[11] = system: Aedes aegypti strain MONHEIM; assay: Aedes aegypti test (AEDSAE surface treatment & contact assay); conditions: 24 hours after contact, read-out: efficacy (mortality)
Experimental: Aedes Aegypti Test (AEDSAE Surface Treatment & Contact Assay)
as §8
as §9, with “mosquitoes” for “flies”, “Aedes aegypti” for “Musca domestica”, “MONHEIM” for “WHO-N”

Compound | pest or weed control at 5 µg/cm2, 500 g/ha [1] | pest or weed control at 32 µg/disc, 100 g/ha [2] | mortality at 100 g/ha [3] | mortality at 100 g/ha [4] | mortality at 4 ppm [5] | mortality at 100 ppm [6] | pest or weed control at 0.004 mg [7] | pest or weed control at 5 µg/cm2 [8] | pest or weed control at 5 µg/cm2, 500 g/ha [9] | pest or weed control at 0.02 mg [7] | mortality at 20 mg/m2 [10] | pest or weed control at 1 µg/cm2, 100 g/ha ([1]; 1 μg/cm^2 (=100 g/ha)) | mortality at 4 mg/m2 ([11]; surface concentration 4 mg/m^2, 30 minutes exposure) | mortality at 20 mg/m2 ([11]; surface concentration 20 mg/m^2, 30 minutes exposure)
CC(NC(=O)c1cc(Br)cc(C(F)(F)F)c1)c1nc(Br)nn1-c1ncccn1 (racemic) [Example I-009, 3-bromo-N-[1-(5-bromo-2-pyrimidin-2-yl-1,2,4-triazol-3-yl)ethyl]-5-(trifluoromethyl)benzamide] | 80% | 100% | 70% | 67% | 100% | 100% | 100% | 100% | 100% | – | – | – | – | –
CC(NC(=O)c1cc(Cl)cc(C(F)(F)F)c1)c1nc(Cl)nn1-c1ccc(Cl)cn1 (racemic) [Example I-017, 3-chloro-N-[1-[5-chloro-2-(5-chloro-2-pyridyl)-1,2,4-triazol-3-yl]ethyl]-5-(trifluoromethyl)benzamide] | – | 100% | – | 83% | – | – | 100% | 100% | – | 100% | – | – | – | –
CC(NC(=O)c1cc(Cl)cc(C(F)(F)F)c1)c1nc(I)nn1-c1ccc(Cl)cn1 (racemic) [Example I-019, 3-chloro-N-[1-[2-(5-chloro-2-pyridyl)-5-iodo-1,2,4-triazol-3-yl]ethyl]-5-(trifluoromethyl)benzamide] | – | 100% | – | 100% | – | – | 100% | 90% | – | 100% | 80 to 100% | – | – | –
CC(NC(=O)c1cc(Br)cc(OC(F)(F)F)c1)c1nc(I)nn1-c1ncccn1 (racemic) [Example I-020, 3-bromo-N-[1-(5-iodo-2-pyrimidin-2-yl-1,2,4-triazol-3-yl)ethyl]-5-(trifluoromethoxy)benzamide] | 100% | 100% | 90% | 100% | 100% | 100% | – | 100% | 100% | – | – | 100% | – | –
CC(NC(=O)c1cc(Cl)cc(C(F)(F)F)c1)c1nc(Cl)nn1-c1ncccn1 (stereo not shown) [Example I-004] | – | 100% | – | 100% | 100% | 90% | 100% | 100% | 100% | 100% | – | – | 80 to 100% | 80 to 100%
CC(NC(=O)c1cc(Cl)cc(Cl)c1)c1nc(Cl)nn1-c1ncccn1 (stereo not shown) [Example I-005] | – | 100% | – | 100% | – | 100% | 100% | – | 100% | 100% | – | – | – | –
CC(NC(=O)c1cc(Cl)nc(Cl)c1)c1nc(Cl)nn1-c1ncccn1 (stereo not shown) [Example I-006] | 100% | 100% | 90% | – | 90% | 100% | 80% | 100% | 80% | – | – | – | – | –
CC(NC(=O)c1cncc(C(F)(F)F)c1)c1nc(Br)nn1-c1ncccn1 (stereo not shown) [Example I-015] | – | 80% | – | – | – | 100% | 100% | 100% | – | – | – | – | – | –
CC(NC(=O)c1cc(Br)cc(C(F)(F)F)c1)c1nc(I)nn1-c1ncccn1 (stereo not shown) [Example I-022] | – | 100% | – | 100% | 100% | 90% | – | 100% | 80% | – | – | – | – | –
CC(NC(=O)c1cc(Br)cc(Br)c1)c1nc(I)nn1-c1ncccn1 (stereo not shown) [Example I-023] | – | – | – | – | – | 100% | – | – | – | – | – | – | – | –
